The source of these data is ChEMBL document CHEMBL4402526, “Design and Synthesis of Fungal-Selective Resorcylate Aminopyrazole Hsp90 Inhibitors” (J Med Chem, 2020).

Calls of active or inactive are those of the source. Some results are limits rather than exact numbers.

The test system of test [1] is Cryptococcus neoformans. As to the kind of experiment: Antifungal activity against Cryptococcus neoformans H99 assessed as fungal growth inhibition at < […] uM measured after 48 hrs by resazurin assay. It is filed as functional, organism-based. On the technique in general: The colour change of resazurin is a common sign of viable cells or microbes.
For test [2], the system named is Cryptococcus neoformans. Briefly: Antifungal activity against Cryptococcus neoformans H99 assessed as fungal growth inhibition at <= […] uM measured after 48 hrs by resazurin assay. It is filed as functional, organism-based.
Test [3] concerns Candida albicans. Briefly: Antifungal activity against Candida albicans clinical isolate 2 assessed as fungal growth inhibition at <= […] uM measured after 48 hrs by resazurin assay. It is filed as functional, organism-based.
A short description of test [4]: Selectivity index, ratio of kd for binding affinity to recombinant human Hsp90 NBD expressed in Escherichia coli Rosetta2 to Kd for binding affinity to recombinant Candida albicans clinical isolate 2 HSP90 NBD (E7 to K218 residues) expressed in Escherichia coli Rosetta2.
In test [5] the test system is Candida albicans. Briefly: Antifungal activity against Candida albicans clinical isolate 2 assessed as fungal growth inhibition measured after 48 hrs in presence of fluconazole by resazurin assay. Type of test: functional. As to conditions: clinical isolate 2, 48 h.
For test [6], the system named is Candida albicans. Briefly: Fungicidal activity against Candida albicans clinical isolate 2 incubated for 48 hrs in presence of fluconazole followed by replating on YDP agar plate and measured after 24 hrs. Type of test: functional, organism-based.

With `Cc1ccccc1-c1cc(Nc2cc(O)cc(O)c2C(=O)N2Cc3ccccc3C2)n(C)n1`, the outcome in the test on Cryptococcus neoformans [1], in the test with Cryptococcus neoformans [2] and in the test with Candida albicans [3] was Active.

For the compound `COc1ccc(CO\N=C2/C=C/C=C\[C@H]3O[C@@H]3C[C@@H](C)OC(=O)c3c(O)cc(O)cc3C2)cc1`, the Selectivity Index in test [4] was more than 25.

Regarding `Cn1nc(-c2ccc(OC(F)(F)F)cc2)cc1Nc1cc(O)cc(O)c1C(=O)N1Cc2ccccc2C1`, the outcome in the test with Cryptococcus neoformans [2] and in the test with Candida albicans [3] was Active. Moreover, the MIC (usually the lowest concentration that inhibits growth of the organism) in the test with Candida albicans [5] is 12.5 µM.

As for `COc1ccc(Cn2nc(-c3ccccc3)cc2Nc2cc(O)cc(O)c2C(=O)N2Cc3ccccc3C2)cc1`, the result with Candida albicans [6], with Cryptococcus neoformans [2] and in the test with Candida albicans [3] was Active.

With `Cc1cc(Nc2cc(O)cc(O)c2C(=O)N2Cc3ccccc3C2)n(Cc2ccccc2Cl)n1`, the result in the test with Candida albicans [6], with Cryptococcus neoformans [2] and in the test with Candida albicans [3] was Active.
